Source: the NIST ThermoML archive (doi:10.1016/j.jct.2006.10.008)
Numbers after ± are expanded uncertainties.

What was measured:
[1] = excess molar enthalpy (molar enthalpy of mixing); xn = mol fraction of the nth substance listed; conditions: 298.15 K, 101 kPa, Liquid, Calvet calorimetry
[2] = xn = mol fraction of the nth substance listed; conditions: 298.15 K, 101 kPa, Liquid

CCCOC=O [propyl methanoate] + ClCCCCCCCl
excess molar enthalpy ([1]; x1 = 0.083): 0.0159 ± 0.000311 kcal/mol
excess molar enthalpy ([1]; x1 = 0.1781): 0.0287 ± 0.000406 kcal/mol
excess molar enthalpy ([1]; x1 = 0.2715): 0.0378 ± 0.000478 kcal/mol
excess molar enthalpy ([1]; x1 = 0.3516): 0.0422 ± 0.000502 kcal/mol
excess molar enthalpy ([1]; x1 = 0.4261): 0.0428 ± 0.000526 kcal/mol
excess molar enthalpy ([1]; x1 = 0.5): 0.0403 ± 0.000502 kcal/mol
excess molar enthalpy ([1]; x1 = 0.5567): 0.0351 ± 0.000454 kcal/mol
excess molar enthalpy ([1]; x1 = 0.6558): 0.0259 ± 0.000382 kcal/mol
excess molar enthalpy ([1]; x1 = 0.7057): 0.0203 ± 0.000335 kcal/mol
excess molar enthalpy ([1]; x1 = 0.7584): 0.015 ± 0.000311 kcal/mol
excess molar enthalpy ([1]; x1 = 0.815): 0.00994 ± 0.000263 kcal/mol
excess molar enthalpy ([1]; x1 = 0.8628): 0.00602 ± 0.000239 kcal/mol
excess molar enthalpy ([1]; x1 = 0.91): 0.00292 ± 0.000215 kcal/mol
excess molar enthalpy ([1]; x1 = 0.9591): 0.00213 ± 0.000215 kcal/mol
mass density ([2]; x1 = 0.0918): 1053.78 ± 0.43 kg/m3
mass density ([2]; x1 = 0.1702): 1044.88 ± 0.41 kg/m3
mass density ([2]; x1 = 0.2469): 1035.63 ± 0.39 kg/m3
mass density ([2]; x1 = 0.3218): 1026.16 ± 0.37 kg/m3
mass density ([2]; x1 = 0.3877): 1017.4 ± 0.36 kg/m3
mass density ([2]; x1 = 0.4551): 1008 ± 0.34 kg/m3
mass density ([2]; x1 = 0.5167): 998.95 ± 0.32 kg/m3
mass density ([2]; x1 = 0.5747): 990.06 ± 0.33 kg/m3
mass density ([2]; x1 = 0.6303): 981.16 ± 0.34 kg/m3
mass density ([2]; x1 = 0.6844): 972.09 ± 0.36 kg/m3
mass density ([2]; x1 = 0.7354): 963.2 ± 0.37 kg/m3
mass density ([2]; x1 = 0.7849): 954.19 ± 0.38 kg/m3
mass density ([2]; x1 = 0.8768): 936.4 ± 0.4 kg/m3
mass density ([2]; x1 = 0.9196): 927.69 ± 0.41 kg/m3
mass density ([2]; x1 = 0.9603): 919.06 ± 0.42 kg/m3

CCCOC=O [propyl methanoate] + ClCCCl
excess molar enthalpy ([1]; x1 = 0.0489): -0.00894 ± 0.000263 kcal/mol
excess molar enthalpy ([1]; x1 = 0.1034): -0.0201 ± 0.000359 kcal/mol
excess molar enthalpy ([1]; x1 = 0.1594): -0.0337 ± 0.000454 kcal/mol
excess molar enthalpy ([1]; x1 = 0.2211): -0.0473 ± 0.00055 kcal/mol
excess molar enthalpy ([1]; x1 = 0.28): -0.0608 ± 0.000669 kcal/mol
excess molar enthalpy ([1]; x1 = 0.3363): -0.0734 ± 0.000765 kcal/mol
excess molar enthalpy ([1]; x1 = 0.3886): -0.0843 ± 0.000837 kcal/mol
excess molar enthalpy ([1]; x1 = 0.4382): -0.09338 ± 0.000908 kcal/mol
excess molar enthalpy ([1]; x1 = 0.483): -0.1003 ± 0.000956 kcal/mol
excess molar enthalpy ([1]; x1 = 0.5155): -0.104 ± 0.00098 kcal/mol
excess molar enthalpy ([1]; x1 = 0.5716): -0.1046 ± 0.001 kcal/mol
excess molar enthalpy ([1]; x1 = 0.6361): -0.1004 ± 0.000956 kcal/mol
excess molar enthalpy ([1]; x1 = 0.7083): -0.08982 ± 0.000884 kcal/mol
excess molar enthalpy ([1]; x1 = 0.7725): -0.0749 ± 0.000765 kcal/mol
excess molar enthalpy ([1]; x1 = 0.8488): -0.0545 ± 0.000621 kcal/mol
excess molar enthalpy ([1]; x1 = 0.9302): -0.0292 ± 0.00043 kcal/mol
mass density ([2]; x1 = 0.0538): 1223.09 ± 0.77 kg/m3
mass density ([2]; x1 = 0.1017): 1203.75 ± 0.73 kg/m3
mass density ([2]; x1 = 0.1515): 1184.04 ± 0.69 kg/m3
mass density ([2]; x1 = 0.2043): 1163.71 ± 0.65 kg/m3
mass density ([2]; x1 = 0.2575): 1143.76 ± 0.61 kg/m3
mass density ([2]; x1 = 0.3685): 1103.98 ± 0.53 kg/m3
mass density ([2]; x1 = 0.4248): 1084.54 ± 0.49 kg/m3
mass density ([2]; x1 = 0.4826): 1065.09 ± 0.45 kg/m3
mass density ([2]; x1 = 0.5426): 1045.46 ± 0.41 kg/m3
mass density ([2]; x1 = 0.6034): 1026.11 ± 0.38 kg/m3
mass density ([2]; x1 = 0.6652): 1006.9 ± 0.34 kg/m3
mass density ([2]; x1 = 0.7294): 987.38 ± 0.34 kg/m3
mass density ([2]; x1 = 0.794): 968.29 ± 0.36 kg/m3
mass density ([2]; x1 = 0.8599): 949.22 ± 0.38 kg/m3
mass density ([2]; x1 = 0.9286): 929.85 ± 0.41 kg/m3

CCCCCOC=O [pentyl methanoate] + ClCCCCCCCl
excess molar enthalpy ([1]; x1 = 0.0697): -0.00265 ± 0.000215 kcal/mol
excess molar enthalpy ([1]; x1 = 0.162): -0.00595 ± 0.000239 kcal/mol
excess molar enthalpy ([1]; x1 = 0.2559): -0.0114 ± 0.000287 kcal/mol
excess molar enthalpy ([1]; x1 = 0.3406): -0.0172 ± 0.000311 kcal/mol
excess molar enthalpy ([1]; x1 = 0.4168): -0.0225 ± 0.000359 kcal/mol
excess molar enthalpy ([1]; x1 = 0.4813): -0.0253 ± 0.000382 kcal/mol
excess molar enthalpy ([1]; x1 = 0.4927): -0.0259 ± 0.000382 kcal/mol
excess molar enthalpy ([1]; x1 = 0.5399): -0.0275 ± 0.000406 kcal/mol
excess molar enthalpy ([1]; x1 = 0.5935): -0.0264 ± 0.000382 kcal/mol
excess molar enthalpy ([1]; x1 = 0.6653): -0.0239 ± 0.000382 kcal/mol
excess molar enthalpy ([1]; x1 = 0.731): -0.0207 ± 0.000359 kcal/mol
excess molar enthalpy ([1]; x1 = 0.8005): -0.0167 ± 0.000311 kcal/mol
excess molar enthalpy ([1]; x1 = 0.8731): -0.0112 ± 0.000263 kcal/mol
excess molar enthalpy ([1]; x1 = 0.9459): -0.00559 ± 0.000239 kcal/mol
mass density ([2]; x1 = 0.0731): 1051.9 ± 0.42 kg/m3
mass density ([2]; x1 = 0.1352): 1041.69 ± 0.4 kg/m3
mass density ([2]; x1 = 0.1967): 1031.48 ± 0.38 kg/m3
mass density ([2]; x1 = 0.3212): 1010.41 ± 0.34 kg/m3
mass density ([2]; x1 = 0.3822): 999.88 ± 0.32 kg/m3
mass density ([2]; x1 = 0.4398): 989.79 ± 0.33 kg/m3
mass density ([2]; x1 = 0.558): 968.7 ± 0.36 kg/m3
mass density ([2]; x1 = 0.6153): 958.24 ± 0.37 kg/m3
mass density ([2]; x1 = 0.6723): 947.69 ± 0.38 kg/m3
mass density ([2]; x1 = 0.7282): 937.22 ± 0.4 kg/m3
mass density ([2]; x1 = 0.7836): 926.72 ± 0.41 kg/m3
mass density ([2]; x1 = 0.839): 916.1 ± 0.42 kg/m3
mass density ([2]; x1 = 0.893): 905.58 ± 0.43 kg/m3
mass density ([2]; x1 = 0.9462): 895.13 ± 0.45 kg/m3

ClCCCCCCl [1,5-dichloropentane] + COC=O
excess molar enthalpy ([1]; x2 = 0.1095): 0.0523 ± 0.000598 kcal/mol
excess molar enthalpy ([1]; x2 = 0.2232): 0.0884 ± 0.000884 kcal/mol
excess molar enthalpy ([1]; x2 = 0.3299): 0.1192 ± 0.00112 kcal/mol
excess molar enthalpy ([1]; x2 = 0.4118): 0.1356 ± 0.00124 kcal/mol
excess molar enthalpy ([1]; x2 = 0.4763): 0.1457 ± 0.00131 kcal/mol
excess molar enthalpy ([1]; x2 = 0.5269): 0.1465 ± 0.00131 kcal/mol
excess molar enthalpy ([1]; x2 = 0.5661): 0.1483 ± 0.00134 kcal/mol
excess molar enthalpy ([1]; x2 = 0.613): 0.1504 ± 0.00136 kcal/mol
excess molar enthalpy ([1]; x2 = 0.6627): 0.1476 ± 0.00134 kcal/mol
excess molar enthalpy ([1]; x2 = 0.7114): 0.1441 ± 0.00129 kcal/mol
excess molar enthalpy ([1]; x2 = 0.7734): 0.1339 ± 0.00122 kcal/mol
excess molar enthalpy ([1]; x2 = 0.8369): 0.1151 ± 0.0011 kcal/mol
excess molar enthalpy ([1]; x2 = 0.88): 0.09362 ± 0.000932 kcal/mol
excess molar enthalpy ([1]; x2 = 0.9328): 0.0669 ± 0.000741 kcal/mol
excess molar enthalpy ([1]; x2 = 0.9693): 0.0361 ± 0.000574 kcal/mol
mass density ([2]; x2 = 0.1169): 1086.48 ± 0.49 kg/m3
mass density ([2]; x2 = 0.2211): 1077.88 ± 0.48 kg/m3
mass density ([2]; x2 = 0.3054): 1070.16 ± 0.46 kg/m3
mass density ([2]; x2 = 0.3849): 1062.32 ± 0.45 kg/m3
mass density ([2]; x2 = 0.4622): 1054 ± 0.43 kg/m3
mass density ([2]; x2 = 0.5291): 1046.2 ± 0.41 kg/m3
mass density ([2]; x2 = 0.5925): 1038.15 ± 0.4 kg/m3
mass density ([2]; x2 = 0.6496): 1030.38 ± 0.38 kg/m3
mass density ([2]; x2 = 0.7004): 1022.87 ± 0.37 kg/m3
mass density ([2]; x2 = 0.7481): 1015.48 ± 0.35 kg/m3
mass density ([2]; x2 = 0.792): 1008.18 ± 0.34 kg/m3
mass density ([2]; x2 = 0.8333): 1001 ± 0.32 kg/m3
mass density ([2]; x2 = 0.8711): 993.92 ± 0.33 kg/m3
mass density ([2]; x2 = 0.9066): 986.88 ± 0.34 kg/m3
mass density ([2]; x2 = 0.94): 980.05 ± 0.35 kg/m3
mass density ([2]; x2 = 0.9705): 973.45 ± 0.35 kg/m3
